Columns and labels:
EGFR L858R/T790M (LR/TM) = EGFR L858R/T790M (LR/TM) (Homo sapiens, UniProt P00533, L858R/T790M); assay: ELISA kinase activity detection, EGFR double mutant; type: biochemical; conditions: ELISA-based EGFR-TK assay, ATP 5 μM, mean ± SD
EGFR(WT) = EGFR(WT) (Homo sapiens, UniProt P00533); assay: ELISA kinase activity detection, EGFR(WT); type: biochemical; conditions: ELISA-based EGFR-TK assay, ATP 5 μM; mean ± SD of at least two determinations
Procedure: (§1) Tyrosine kinase: EGFR(WT) • EGFR^T790M/L858R(LR/TM) • EGFR^T790M/L858R/[…](LR/TM/CS)
(§2) ELISA Kinase Activity Detection
Enzyme-Linked Immunosorbent Assay (ELISA) was used to detect the ability of a kinase to phosphorylate a substrate and calculate the inhibitory effect of a compound on the kinase activity. […]
(§3) The main steps of ELISA are listed as follows: the substrate Poly(Glu, Tyr) 4:1 was diluted with potassium ion-free PBS to 2.5 μg/well, incubated at 37° C. for 12-16 h to coat the ELISA plate for use. An ATP solution (final concentration of 5 μM) diluted with a reaction buffer (50 mM HEPES pH 7.4, 20 mM MgCl2, 0.1 mM MnCl2, 0.2 mM Na3VO4, 1 mM DTT) was added to each well. A compound or solvent control was added, and then a kinase was added to start the reaction at 37° C. in a shaker for 1 h. The plate was washed for three times with T-PBS, and 100 μL of antibody PY99 (diluted in T-PBS containing 5 mg/mL BSA, 1: 500) was added, and incubated in a shaker at 37° C. for 0.5 h. After washing the plate with T-PBS, 100 μL of horseradish peroxidase-labeled goat anti-mouse IgG (diluted in T-PBS containing 5 mg/mL BSA, 1: 2000) was added, and incubated in a shaker at 37° C. for 0.5 h. After washing the plate again, a developing liquid containing 0.03% H2O2, 2 mg/mL OPD (0.1 mol/L, in citrate buffer solution pH 5.4) was added at 100 μL/well, and incubated for 1-10 min at 25° C. in darkness. 50 μL/well of 2 M H2SO4 was added to quench the reaction, and read with a wavelength-tunable microplate reader (SpectraMax Plus384, Molecular Devices) at a wavelength of 490 nm. The IC50 value was obtained from the inhibition curve.

[1] = target: T1, EGFR L858R/T790M/C797S (LR/TM/CS) (Homo sapiens, UniProt P00533, C797S/L858R/T790M); assay: ELISA kinase activity detection, EGFR triple mutant; type: biochemical; conditions: ELISA-based EGFR-TK assay, ATP 5 μM, mean ± SD
T1 construct: purchased BPS Bioscience
Procedure: as §1, §2
Enzyme-Linked Immunosorbent Assay (ELISA) was used to detect the ability of a kinase to phosphorylate a substrate and calculate the inhibitory effect of a compound on the kinase activity. The used kinase was EGFR L858R/T790M/C797S (purchased from BPS Bioscience).
as §3

Sequence of EGFR L858R/T790M (LR/TM) (P00533 25-1210 T790M/L858R): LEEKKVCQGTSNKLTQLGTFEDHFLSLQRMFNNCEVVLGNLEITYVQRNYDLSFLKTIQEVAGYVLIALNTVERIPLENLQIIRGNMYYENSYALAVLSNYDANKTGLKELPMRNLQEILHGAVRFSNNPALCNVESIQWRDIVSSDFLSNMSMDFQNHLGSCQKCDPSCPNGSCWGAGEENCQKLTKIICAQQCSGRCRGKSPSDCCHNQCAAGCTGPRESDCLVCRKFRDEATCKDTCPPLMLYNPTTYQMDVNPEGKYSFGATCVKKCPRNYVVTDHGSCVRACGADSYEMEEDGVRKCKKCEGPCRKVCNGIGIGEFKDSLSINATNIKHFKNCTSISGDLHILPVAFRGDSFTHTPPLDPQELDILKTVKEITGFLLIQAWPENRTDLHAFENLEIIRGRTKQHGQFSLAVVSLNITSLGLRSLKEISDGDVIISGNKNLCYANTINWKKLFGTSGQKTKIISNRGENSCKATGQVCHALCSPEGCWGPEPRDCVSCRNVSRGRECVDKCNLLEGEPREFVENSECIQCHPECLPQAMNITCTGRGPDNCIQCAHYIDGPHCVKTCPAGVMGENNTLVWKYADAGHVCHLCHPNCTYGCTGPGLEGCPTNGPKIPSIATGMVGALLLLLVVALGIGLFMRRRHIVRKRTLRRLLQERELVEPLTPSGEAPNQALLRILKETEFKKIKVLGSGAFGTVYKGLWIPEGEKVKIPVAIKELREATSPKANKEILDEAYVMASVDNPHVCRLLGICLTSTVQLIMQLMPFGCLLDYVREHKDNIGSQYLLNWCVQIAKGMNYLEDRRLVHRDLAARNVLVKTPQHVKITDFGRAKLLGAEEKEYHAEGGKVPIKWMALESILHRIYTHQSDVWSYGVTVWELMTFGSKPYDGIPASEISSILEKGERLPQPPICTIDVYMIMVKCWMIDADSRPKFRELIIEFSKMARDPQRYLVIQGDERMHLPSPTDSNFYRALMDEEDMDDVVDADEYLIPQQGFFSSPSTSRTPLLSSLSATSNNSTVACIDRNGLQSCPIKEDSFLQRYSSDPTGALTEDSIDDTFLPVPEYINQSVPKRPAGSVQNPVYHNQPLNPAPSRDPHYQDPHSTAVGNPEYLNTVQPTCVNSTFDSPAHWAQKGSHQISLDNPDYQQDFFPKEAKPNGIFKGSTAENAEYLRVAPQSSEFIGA
Sequence of EGFR(WT) (P00533 25-1210): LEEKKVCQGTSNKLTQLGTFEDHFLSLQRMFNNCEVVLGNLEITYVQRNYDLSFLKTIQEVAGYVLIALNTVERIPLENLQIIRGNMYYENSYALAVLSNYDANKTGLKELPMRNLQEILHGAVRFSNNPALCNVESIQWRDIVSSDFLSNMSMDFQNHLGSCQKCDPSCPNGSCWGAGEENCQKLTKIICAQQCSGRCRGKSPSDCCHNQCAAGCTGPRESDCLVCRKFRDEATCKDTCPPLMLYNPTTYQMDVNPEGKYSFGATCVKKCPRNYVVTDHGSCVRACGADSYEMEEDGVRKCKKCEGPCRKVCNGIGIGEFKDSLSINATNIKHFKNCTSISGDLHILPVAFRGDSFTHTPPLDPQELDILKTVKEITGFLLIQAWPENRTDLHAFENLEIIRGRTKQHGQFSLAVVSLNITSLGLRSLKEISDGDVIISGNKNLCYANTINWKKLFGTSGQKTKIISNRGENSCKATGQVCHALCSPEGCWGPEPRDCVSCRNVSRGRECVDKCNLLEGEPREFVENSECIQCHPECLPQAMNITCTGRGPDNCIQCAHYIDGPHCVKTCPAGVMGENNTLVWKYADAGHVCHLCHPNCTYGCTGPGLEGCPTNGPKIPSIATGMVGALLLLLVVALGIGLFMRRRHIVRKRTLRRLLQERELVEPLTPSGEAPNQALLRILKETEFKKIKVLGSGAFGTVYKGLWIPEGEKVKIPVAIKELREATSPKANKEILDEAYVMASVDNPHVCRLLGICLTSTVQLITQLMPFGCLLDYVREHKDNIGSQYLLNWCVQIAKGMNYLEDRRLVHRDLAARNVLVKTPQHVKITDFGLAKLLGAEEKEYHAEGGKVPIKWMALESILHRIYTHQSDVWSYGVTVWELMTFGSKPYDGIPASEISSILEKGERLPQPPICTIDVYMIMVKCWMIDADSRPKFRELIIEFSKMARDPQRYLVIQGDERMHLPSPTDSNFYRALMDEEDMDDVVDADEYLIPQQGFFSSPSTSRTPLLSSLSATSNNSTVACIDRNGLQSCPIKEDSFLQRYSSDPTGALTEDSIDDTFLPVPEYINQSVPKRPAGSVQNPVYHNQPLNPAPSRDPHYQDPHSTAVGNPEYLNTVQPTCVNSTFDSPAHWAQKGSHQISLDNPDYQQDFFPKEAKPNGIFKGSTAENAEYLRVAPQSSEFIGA
T1 sequence (P00533 25-1210 T790M/C797S/L858R): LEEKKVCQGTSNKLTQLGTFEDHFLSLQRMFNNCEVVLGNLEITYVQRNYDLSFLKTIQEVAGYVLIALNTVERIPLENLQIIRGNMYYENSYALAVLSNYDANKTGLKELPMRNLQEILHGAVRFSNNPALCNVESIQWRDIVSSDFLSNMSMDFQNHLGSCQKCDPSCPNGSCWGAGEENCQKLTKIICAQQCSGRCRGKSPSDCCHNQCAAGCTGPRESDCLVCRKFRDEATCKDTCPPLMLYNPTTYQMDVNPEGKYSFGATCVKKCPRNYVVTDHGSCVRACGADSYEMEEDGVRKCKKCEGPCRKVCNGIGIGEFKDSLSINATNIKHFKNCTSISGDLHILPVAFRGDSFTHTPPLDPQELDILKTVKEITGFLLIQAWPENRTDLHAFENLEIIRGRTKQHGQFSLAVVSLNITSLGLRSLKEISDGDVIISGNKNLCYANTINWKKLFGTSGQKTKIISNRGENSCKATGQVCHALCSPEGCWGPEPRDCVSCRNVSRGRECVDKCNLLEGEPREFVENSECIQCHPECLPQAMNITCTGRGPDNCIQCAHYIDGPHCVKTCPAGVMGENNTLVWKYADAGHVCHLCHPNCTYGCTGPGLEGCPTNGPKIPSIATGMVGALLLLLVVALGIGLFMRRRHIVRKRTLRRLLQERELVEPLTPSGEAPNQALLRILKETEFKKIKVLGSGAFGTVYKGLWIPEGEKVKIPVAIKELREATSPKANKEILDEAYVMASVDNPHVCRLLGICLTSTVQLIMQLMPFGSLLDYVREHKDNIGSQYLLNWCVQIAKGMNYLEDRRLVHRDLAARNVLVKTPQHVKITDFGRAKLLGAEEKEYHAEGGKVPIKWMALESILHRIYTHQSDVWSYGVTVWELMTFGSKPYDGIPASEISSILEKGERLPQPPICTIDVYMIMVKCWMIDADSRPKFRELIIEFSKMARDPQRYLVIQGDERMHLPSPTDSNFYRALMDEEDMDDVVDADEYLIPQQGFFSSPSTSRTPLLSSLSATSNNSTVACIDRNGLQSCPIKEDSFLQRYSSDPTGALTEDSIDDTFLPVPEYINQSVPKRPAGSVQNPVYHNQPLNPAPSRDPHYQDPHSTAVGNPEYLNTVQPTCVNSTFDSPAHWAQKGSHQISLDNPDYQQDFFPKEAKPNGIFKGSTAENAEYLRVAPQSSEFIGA

With COc1cc2c(Nc3ccc(NC(=O)C(c4ccccc4)c4ccccc4)cc3F)ncnc2cc1OCC1CCN(C)CC1 [Example 11, N-(3-fluoro-4-((6-methoxy-7-((1-methylpiperidin-4-yl)methoxy)quinazolin-4-yl)amino)phenyl)-2,2-diphenyl] as the compound, how does the IC50 (EGFR L858R/T790M (LR/TM)) read?
Its IC50 is 1000 ± 435 nM.

And the IC50 (EGFR(WT))?
Its IC50 is 5.6 ± 3.3 nM.

And the IC50 [1]?
Its IC50 is 1300 ± 308 nM.

What about the melting point of the same compound?
The melting point was 257 to 257.2 °C.
